{
  "source": "patent US20210145972A1",
  "about": "“NAN[…] A NUCLEIC ACID SCAFFOLD AND VIRUS-BINDING PEPTIDE MOIETIES” (FRAUNHOFER-GESELLSCHAFT ZUR FÖRDERUNG DER ANGEWANDTEN …, priority 2017, published 2021)",
  "molecules": {"B1": {"name": "DNA-PeB3: three-branched DNA scaffold of three DNA strands (SEQ ID NOs 2-4) with three PeB peptide moieties, one per strand end (conjugate)", "DNA 1": "ACTATCTTTGGTCTATTATCTTGAGTCATC", "DNA 2": "TAGTTGTGTGTGTGTTAGACCAAAGATAGT", "DNA 3": "GATGACTCAAGATAAACACACACACAACTA", "modifications": "DNA, backbone and methylation of C not given here; PeB peptide conjugated at one end of each strand"}},
  "key": {"[1]": {"system": "Dengue virus", "conditions": "read-out: virus entry into host cells inhibited by 50% (IC50); cited from earlier work"}, "[2]": {"system": "Dengue virus 2", "assay": "Focus formation assay", "format": "cell-based", "experimental": "The inhibition of Dengue virus 2 by DET4 peptides and DET4 coupled to DNA nanostructures was investigated by focus formation assay. Target cells were seeded in a 96-well plate the day before infection. In a separate 96 well plate 200-500 virus particles per well were incubated with or without DET4 monomers and DET4-coupled DNA Trimers in different concentrations for 2 hours followed by transfer of the mixtures to confluent target cell monolayers and incubation for 1 h at 37° C.\nSubsequently fresh DMEM/2% (v/v) FBS containing 1.6% (w/v) Avicell was added to each well, covering the surface with microcrystalline cellulose to avoid spreading of the virus in the medium and enhancing formation of virus foci. Infected cells were incubated for 4 days followed by washing with PBS and fixing with 70% ethanol. Cells were rinsed with phosphate buffered saline, pH 7.4 (PBS) prior to immunostaining. Virus foci were detected using an Anti-flavivirus mouse monoclonal antibody that recognizes Dengue viruses, followed by horseradish peroxidase-conjugated goat anti-mouse immunoglobulin, and developed using TMB chromogen substrate. After washing, Virus foci were visible in the wells as blue spots that were counted for quantitative analysis. Counting results are presented in the table 1."}, "[3]": {"biological_target": "influenza A hemagglutinin (Influenza A virus, UniProt P03437)", "conditions": "read-out: dissociation constant KD with hemagglutinin; cited from earlier work"}, "[4]": {"system": "influenza A infection of MDCKII cells", "assay": "Infection inhibition assay using MDCKII cells (cytopathic effect)", "format": "cell-based", "experimental": "Also preferred is an infection inhibition assay. The infection inhibition assay using MDCKII cells and the MTT Test (or MTS). Inhibitor (peptide-conjugates DNA nanostructure) and virus are pre-incubated for 10-30 min at room temperature and added to cells (MDCKII for influenza, Vero E6 for Dengue). Viral infection of host cells can be tested after 24-72 h by either crystal violet staining or MTT/MTS reagents. Infected cells will slow down their metabolism and/or die after a certain time.\nThe inhibition of the influence virus by different DNA scaffolds together with PeB is shown. It can be seen from SPR data in FIG. 8 that the binding of virus particles is increased when more peptides are presented on the DNA scaffold. […] No binding to the virus particles is seen when they are not carrying any peptides.\nFIG. 14A: Infection inhibition assay using MDCKII cells. This is a microscopic image of MDCKII cells. The cells form a healthy monolayer. No cytopathic effect (CPE) is seen.\nFIG. 14b: Infection inhibition assay using MDCKII cells. This is a microscopic image of MDCKII cells infected with influenza viruses. The cells begin to die. A cytopathic effect (CPE) (rounding up and small aggregations of the cells) is clearly seen."}, "[5]": {"system": "inactivated influenza A virus", "format": "binding", "conditions": "flow cell 4 vs flow cell 2"}, "[6]": {"system": "influenza A viruses", "assay": "Hemagglutination inhibition assay (HAI)", "format": "cell-based", "conditions": "dilution series, constant virus and blood, FIGS. 11-13"}},
  "note": "“Also recorded” adds a separate entry of the source. Ends that are not written are not given here.",
  "data": [
    {"molecule": "AGVKDGKLDF [DET4]", "values": [
      {"measurement": "IC50", "setting": "[1]", "result": 35, "unit": "µM"},
      {"measurement": "inhibition of Dengue virus infection of target cells, result in words", "setting": "[2]", "result": "not able to inhibit viral infection"},
      {"measurement": "virus foci counted", "setting": "[2]; 10 μM", "result": 53},
      {"measurement": "virus foci counted", "setting": "[2]; 50 μM", "result": 47},
      {"measurement": "virus foci counted", "setting": "[2]; 100 μM", "result": 46}
    ]},
    {"molecule": "ARDFYDYDVFYYAMD [PeB, reference compound]", "values": [
      {"measurement": "Kd", "setting": "[3]", "result": 56.8, "unit": "µM"},
      {"measurement": "inhibition of infection / cytopathic effect", "setting": "[4]; 500 μM", "result": "more significant cytopathic effect; also recorded: not enough to inhibit the infection"}
    ]},
    {"molecule": "DNA 4-arm structure with 3×PeB: mimics the N structure with a fourth arm bearing biotin, carrying 3×PeB (ARDFYDYDVFYYAMD; also: stated molecule is a DNA 4-arm structure with biotin arm carrying 3×PeB)", "values": [
      {"measurement": "dissociation time compared to the simple DNA double-strand (SPR)", "setting": "[5]", "result": "slower dissociation time"}
    ]},
    {"molecule": "B1", "values": [
      {"measurement": "inhibition of virus binding to RBCs (HAI), result in words", "setting": "[6]", "result": "able to inhibit binding of the influenza A virus to red blood cells"},
      {"measurement": "inhibition of virus binding to RBCs (HAI), result in words", "setting": "[6]; listed as N", "result": "concentration-dependent increase in binding"},
      {"measurement": "inhibition of virus binding to RBCs (HAI), result in words", "setting": "[6]; listed as N_3×PeB", "result": "RBCs forming a dot on the bottom of the well can be seen for high concentrations; also recorded: hinder the viruses from binding to RBCs"},
      {"measurement": "inhibition of infection / cytopathic effect", "setting": "[4]; 11 μM, listed as N with 3 peptides", "result": "clear inhibition"},
      {"measurement": "inhibition of infection / cytopathic effect", "setting": "[4]; 11 μM, listed as Trimer “N” with 3×PeB", "result": "Virus infection was inhibited"}
    ]}
  ]
}
